Data: US8624034B2, “Fluoro-pyridinone derivatives useful as antibacterial agents” (Pfizer Inc., priority 2011, dated 2014)
Converted amounts (≈) assume the structure as drawn.

What was measured:
[1] = biological target: T1, Pseudomonas aeruginosa LpxC enzyme (Pseudomonas aeruginosa, UniProt P47205); experiment: IC50 assay, LpxC enzyme from P. aeruginosa (PA LpxC enzyme IC50); assay type: biochemical; details: Table 2; LpxC enzyme 0.1 nM, 25° C., 1 hour; read-out: PA:IC50
T1 construct: made in house; host or cells: E. coli
T1 sequence (P47205 1-303): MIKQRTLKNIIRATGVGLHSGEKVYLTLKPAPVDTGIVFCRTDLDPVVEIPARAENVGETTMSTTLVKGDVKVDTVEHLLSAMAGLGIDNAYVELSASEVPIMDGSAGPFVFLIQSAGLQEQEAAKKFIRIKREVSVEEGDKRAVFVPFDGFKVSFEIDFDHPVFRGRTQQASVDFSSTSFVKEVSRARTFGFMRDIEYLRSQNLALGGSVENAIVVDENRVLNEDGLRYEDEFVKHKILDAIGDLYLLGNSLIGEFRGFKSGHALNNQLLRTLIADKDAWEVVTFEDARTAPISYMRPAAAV
Procedure, shortened: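 IC50 values came from percent conversion, referenced to a no-enzyme control. Conversion was read by RapidFire HTMS mass spectrometry after HCl quench of the 1 h enzyme reaction.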

[2] = system: Acinetobacter baumannii/haemolyticus, multidrug-resistant clinical isolate (AB-3167); experiment: MIC determination, AB-3167; assay type: cell-based; details: Table 2, lower of duplicate values
Procedure, shortened: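 MIC read visually after overnight growth across 2-fold concentration steps in the CLSI dilution method against the multidrug-resistant clinical isolate. Duplicate determinations, lower value reported when within 2-fold, otherwise repeated; every run checked with control organisms and reference drugs.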

[3] = system: Escherichia coli EC-1: VOGEL, mouse virulent; experiment: MIC determination, EC-1; assay type: cell-based; details: Escherichia coli, read-out: EC-1 (MIC), Table 2, lower of duplicate values
Procedure, shortened: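 Duplicate runs differing by more than 2-fold were repeated, and otherwise the lower MIC was kept. The test organism was E. coli EC-1 (VOGEL, mouse virulent), incubated overnight across 2-fold compound dilutions following CLSI guidelines. The MIC was read visually as the lowest concentration inhibiting growth relative to drug-free control.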

[4] = system: Pseudomonas aeruginosa UI-18: wild-type (PA-7); experiment: MIC determination, PA-7; assay type: cell-based; details: Table 2, lower of duplicate values
Protocol: The in vitro antibacterial activity of compounds described in the Examples was evaluated by minimum inhibitory concentration (MIC) testing according to Clinical and Laboratory Standards Institute (CLSI). See: Clinical and Laboratory Standards Institute. Methods for Dilution Antimicrobial Susceptibility Tests for Bacteria that Grow Aerobically; Approved Standard-Eighth Edition. CLSI document M7-A8 [ISBN 1-56238-689-1]. Clinical and Laboratory Standards Institute, 940 West Valley Road, Suite 1400, Wayne, Pa. 19087-1898 USA, 2006; also Clinical and Laboratory Standards Institute. Performance Standards for Antimicrobial Susceptibility Testing; Twentieth Informational Supplement. CLSI document M100-S20 [ISBN 1-56238-716-2]. Clinical and Laboratory Standards Institute.
The MIC determination is a standard laboratory method for evaluating the antibacterial activity of a compound. The MIC represents the lowest drug concentration that inhibits visible growth of bacteria following overnight incubation. […] Typically, the drug concentration range is broken down into 2-fold increments (e.g. 0.06 μg/mL, 0.12 μg/mL. 0.25 μg/mL, 0.50 μg/mL, 1.0 μg/mL, etc.) and the various drug concentrations are all individually incubated overnight with approximately the same number of bacteria. The MIC is then determined by visually inspecting the drug effect at each concentration, and identifying the lowest drug concentration that has inhibited bacterial growth as compared to the drug free control. Typically, bacteria continue to grow at drug concentrations lower than the MIC and don't grow at concentrations at and above the MIC.
The MIC values described in Table 2 and 3 below were derived from assays wherein each test compound was evaluated in duplicate. In cases where the duplicate values varied by 0-2-fold, the lower of the two values was reported below. Generally speaking, if the duplicate values varied by more than 2-fold, the assay was considered non-valid and was repeated until the variation between duplicate runs was ≦2-fold. In line with the CLSI guidelines referred to above, both control organisms and reference compounds were utilized in each MIC assay to provide proper quality control. MIC values generated with these control organisms and reference compounds were required to fall within a defined range for the assay to be considered valid and be included herein. Those skilled in the art will recognize that MIC values can and do vary from experiment to experiment. Generally speaking, it should be recognized that MIC values often vary +/−2-fold from experiment to experiment. While a single MIC is reported for each compound and each microorganism, the reader should not conclude that each compound was only tested once. Several of the compounds were subjected to multiple tests. The data reported in Tables 2 and 3 is reflective of the compounds relative activity and different MICs may have been generated on these occasions in line with the guidelines described above.
The following bacterial strains were used in these MIC determinations:
1) Pseudomonas aeruginosa UI-18: Wild-type, labeled as PA-7 in Tables 2 and 3;

| Compound | IC50 [1] [nM] | MIC [2] [µg/mL] | MIC [3] [µg/mL] | MIC [4] [µg/mL] |
| --- | --- | --- | --- | --- |
| C[C@@](CCn1cc(F)c(-c2ccc(OC(F)(F)F)cc2)cc1=O)(C(=O)NO)S(C)(=O)=O [Example 30, (2R)-4-{5-Fluoro-2-oxo-4-[4-(trifluoromethoxy)phenyl]pyridin-1(2H)-yl}-N-hydroxy-2-methyl-2-(methylsulfonyl)butanamide] | 0.106 | > 64 | 0.25 (≈ 0.536 µM) | 0.5 (≈ 1.07 µM) |
| Cc1cc(-c2cc(=O)n(CC[C@](C)(C(=O)NO)S(C)(=O)=O)cc2F)ccc1F [Example 14, (2R)-4-[5-Fluoro-4-(4-fluoro-3-methylphenyl)-2-oxopyridin-1(2H)-yl]-N-hydroxy-2-methyl-2-(methylsulfonyl)butanamide] | 0.758 | > 64 | 0.5 (≈ 1.21 µM) | 0.5 (≈ 1.21 µM) |
| C[C@@](CCn1cc(F)c(-c2ccccc2)c(O)c1=O)(C(=O)NO)S(C)(=O)=O [Example 40, (2R)-4-(5-Fluoro-3-hydroxy-2-oxo-4-phenylpyridin-1(2H)-yl)-N-hydroxy-2-methyl-2-(methylsulfonyl)butanamide] | > 100 | 64 (≈ 161 µM) | 16 (≈ 40.2 µM) | 16 (≈ 40.2 µM) |
| C[C@@](CCn1cc(F)c(-c2ccc(F)cc2)cc1=O)(C(=O)NO)S(C)(=O)=O [Example 31, (2R)-4-[5-Fluoro-4-(4-fluorophenyl)-2-oxopyridin-1(2H)-yl]-N-hydroxy-2-methyl-2-(methylsulfonyl)butanamide] | 0.213 | > 64 | 1 (≈ 2.5 µM) | 0.5 (≈ 1.25 µM) |
| COc1ccc(-c2cc(=O)n(CC[C@](C)(C(=O)NO)S(C)(=O)=O)cc2F)cc1 [Example 28, (2R)-4-[5-Fluoro-4-(4-methoxyphenyl)-2-oxopyridin-1(2H)-yl]-N-hydroxy-2-methyl-2-(methylsulfonyl)butanamide] | 0.564 | > 64 | 1 (≈ 2.42 µM) | 0.5 (≈ 1.21 µM) |
| [2H]C([2H])([2H])C([2H])([2H])Oc1ccc(-c2cc(=O)n(CC[C@](C)(C(=O)NO)S(C)(=O)=O)cc2F)cc1 [Example 45, (2R)-4-[4-(4-Pentadeuteroethoxyphenyl)-5-fluoro-2-oxopyridin-1(2H)-yl]-N-hydroxy-2-methyl-2-(methylsulfonyl)butanamide] | 0.547 | > 64 | 0.125 (≈ 0.29 µM) | 0.5 (≈ 1.16 µM) |
| CCCc1ccc(-c2cc(=O)n(CC[C@](C)(C(=O)NO)S(C)(=O)=O)cc2F)cc1 [Example 11, (2R)-4-[5-Fluoro-2-oxo-4-(4-propylphenyl)pyridin-1(2H)-yl]-N-hydroxy-2-methyl-2-(methylsulfonyl)butanamide] | 0.482 | > 64 | 0.125 (≈ 0.294 µM) | 0.5 (≈ 1.18 µM) |
| C[C@@](CCn1cc(F)c(-c2ccc(-n3nccn3)cc2)cc1=O)(C(=O)NO)S(C)(=O)=O [Example 26, (2R)-4-{5-Fluoro-2-oxo-4-[4-(2H-1,2,3-triazol-2-yl)phenyl]pyridin-1(2H)-yl}-N-hydroxy-2-methyl-2-(methylsulfonyl)butanamide] | 0.0743 | > 64 | ≤ 0.06 | 0.25 (≈ 0.556 µM) |
| C[C@@](CCn1cc(F)c(-c2ccc(S(F)(F)(F)(F)F)cc2)cc1=O)(C(=O)NO)S(C)(=O)=O [Example 12, (2R)-4-{5-Fluoro-2-oxo-4-[4-(pentafluoro-6λ-sulfanyl)phenyl]pyridin-1(2H)-yl}-N-hydroxy-2-methyl-2-(methylsulfonyl)butanamide] | 1.14 | > 64 | 4 (≈ 7.87 µM) | 4 (≈ 7.87 µM) |
| C[C@@](CCn1cc(F)c(-c2ccc(OC[C@H]3CC[C@H](O)CC3)cc2)cc1=O)(C(=O)NO)S(C)(=O)=O [Example 18, (2R)-4-[5-Fluoro-4-{4-[(trans-4-hydroxycyclohexyl)methoxy]phenyl}-2-oxopyridin-1(2H)-yl]-N-hydroxy-2-methyl-2-(methylsulfonyl)butanamide] | 0.463 | > 64 | 0.125 (≈ 0.245 µM) | 1 (≈ 1.96 µM) |
| [2H]C([2H])([2H])c1ccc(-c2cc(=O)n(CC[C@](C)(C(=O)NO)S(C)(=O)=O)cc2F)cc1 [Example 43, (2R)-4-[5-Fluoro-4-(4-trideuteromethylphenyl)-2-oxopyridin-1(2H)-yl]-N-hydroxy-2-methyl-2-(methylsulfonyl)butanamide] | 0.653 | > 64 | 0.25 (≈ 0.626 µM) | 0.5 (≈ 1.25 µM) |
| Cc1cccc(-c2cc(=O)n(CC[C@](C)(C(=O)NO)S(C)(=O)=O)cc2F)c1F [Example 2, (2R)-4-[5-Fluoro-4-(2-fluoro-3-methylphenyl)-2-oxopyridin-1(2H)-yl]-N-hydroxy-2-methyl-2-(methylsulfonyl)butanamide] | 0.595 | > 64 | 0.25 (≈ 0.603 µM) | 0.25 (≈ 0.603 µM) |
| C[C@@](CCn1cc(F)c(-c2ccc(OC3CC3)cc2)cc1=O)(C(=O)NO)S(C)(=O)=O [Example 46, (2R)-4-{4-[4-(Cyclopropyloxy)phenyl]-5-fluoro-2-oxopyridin-1(2H)-yl}-N-hydroxy-2-methyl-2-(methylsulfonyl)butanamide] | 0.229 | > 64 | 0.125 (≈ 0.285 µM) | 0.5 (≈ 1.14 µM) |
| C[C@@](CCn1cc(F)c(-c2ccc(OC3COC3)cc2)cc1=O)(C(=O)NO)S(C)(=O)=O [Example 15, (2R)-4-{5-fluoro-4-[4-(oxetan-3-yloxy)phenyl]-2-oxopyridin-1(2H)-yl}-N-hydroxy-2-methyl-2-(methylsulfonyl)butanamide] | 2.05 | > 64 | 16 (≈ 35.2 µM) | 16 (≈ 35.2 µM) |
| COc1cccc(-c2cc(=O)n(CC[C@](C)(C(=O)NO)S(C)(=O)=O)cc2F)c1F [Example 17, (2R)-4-[5-fluoro-4-(2-fluoro-3-methoxyphenyl)-2-oxopyridin-1(2H)-yl]-N-hydroxy-2-methyl-2-(methylsulfonyl)butanamide] | 0.5 | > 64 | 0.5 (≈ 1.16 µM) | 1 (≈ 2.32 µM) |
| COc1c(-c2ccccc2)c(F)cn(CC[C@](C)(C(=O)NO)S(C)(=O)=O)c1=O [Example 39, (2R)-4-(5-Fluoro-3-methoxy-2-oxo-4-phenylpyridin-1(2H)-yl)-N-hydroxy-2-methyl-2-(methylsulfonyl)butanamide] | 8.07 | 64 (≈ 155 µM) | 4 (≈ 9.7 µM) | 8 (≈ 19.4 µM) |
| C[C@@](CCn1cc(F)c(-c2cccc(Oc3nccs3)c2)cc1=O)(C(=O)NO)S(C)(=O)=O [Example 49, (2R)-4-{5-Fluoro-2-oxo-4-[3-(1,3-thiazol-2-yloxy)phenyl]pyridin-1(2H)-yl}-N-hydroxy-2-methyl-2-(methylsulfonyl)butanamide] | 0.758 | > 64 | 0.25 (≈ 0.519 µM) | 2 (≈ 4.15 µM) |
| COc1ccc(-c2cc(=O)n(CC[C@](C)(C(=O)NO)S(C)(=O)=O)cc2F)cc1C [Example 34, (2R)-4-[5-Fluoro-4-(4-methoxy-3-methylphenyl)-2-oxopyridin-1(2H)-yl]-N-hydroxy-2-methyl-2-(methylsulfonyl)butanamide] | 0.834 | > 64 | 0.25 (≈ 0.586 µM) | 0.5 (≈ 1.17 µM) |
